# Patent publication US4762848A, “1,3-thiazoles and their use as immunomodulators” (Hoechst Aktiengesellschaft, priority 1985, dated 1988)
# Key:
# [1] = test system: cellular immune response (DTH reaction) to sheep erythrocytes; test: Delayed type hypersensitivity (DTH) foot swelling reaction to sheep erythrocytes; format: in vivo, female NMRI mice; details: mice, i.p. and p.o.
# Method: Effect On The Cellular Immunological Reaction, of the Delayed Type, to Sheep Erythrocytes (Delayed Type Hypersensitivity, DTH)
# Either 10^6 or 10^9 red blood cells from sheep were administered intravenously to each animal in groups of 5 female NMRI mice weighing 18-20 g. Sheep erythrocytes are regarded in immunology as a standard test substance (antigen) for the induction of cellular and humoral immune reactions. In particular, this test provides information about the functioning of the T-cell-dependent component (T-helper cells) of the immune system. The test substance obtained as in exemplary embodiment 7 ([2-(3-carboxy-1-propylthio)-4 -methyl-1,3-thiazol-5-yl]acetic acid) was administered intraperitoneally and perorally, respectively, in the concentrations 10-100 mg/kg in physiological saline solution on days -3, -2, -1 and 0.After 5 days, each animal received 2×10^8 sheep erythrocytes injected into the underside of the foot and, 24 hours later, the swelling of the foot was measured. The foot swelling is induced by a skin reaction of the delayed type (delayed type hypersensitivity, DTH) and is, as is known to the expert, a measure of the cellular immune response (Collins, F. M. and Mackaness, G. B., J. Immunol. 101, 830-845, 1968). […]
# Candida albicans = test: Therapeutic treatment of chronic Candida albicans infection; format: in vivo, female Balb/c mice infected with Candida albicans; details: for Urine infected with C. albicans d19 / Urine infected with C. albicans d24 / Kidneys infected with C. albicans / Necrotic kidneys: days 3-15; for Urine infected with C. albicans d19: day 19; for Urine infected with C. albicans d24: day 24; for Kidneys infected with C. albicans / Necrotic kidneys: day 26
# Method: Increase in the Resistance of Balb/c Mice to Infection with Candida albicans
# (a) Therapeutic treatment
# For the therapeutic treatment of chronic Candida albicans infection, female Balb/c mice (16/group) were infected intravenously with Candida albicans (2.5×10^5 cfu/mouse) (day 0). After the infection had taken place, the animals were treated intraperitoneally on 13 consecutive days (days 3-15) with the test substance obtained as in Example 7; the concentrations were 0.5, 2.0, 5.0, 10.0, 30.0 and 60.0 mg/kg. The control animals received administrations of physiological saline solution. Urine was collected from the animals on days 19 and 24, and the organism count was determined. On day 26, the animals were sacrificed, and the organism count and the necroses in the kidneys were determined.
smiles,measurement,setting,value
"Cc1nc(SCCCC(=O)O)sc1CC(=O)O [Example 7, [2-(3-Carboxy-1-propylthio)-4-methyl-1,3-thiazol-5-yl]acetic acid]",dose for optimum stimulation of the cellular immune response,[1],20 to 40 mg/kg
same,Urine infected with C. albicans d19,Candida albicans; 0.5 mg/kg i.p.,0%
same,Urine infected with C. albicans d24,Candida albicans; 0.5 mg/kg i.p.,6%
same,Kidneys infected with C. albicans,Candida albicans; 0.5 mg/kg i.p.,27%
same,Necrotic kidneys,Candida albicans; 0.5 mg/kg i.p.,27%
same,Urine infected with C. albicans d19,Candida albicans; 2.0 mg/kg i.p.,6%
same,Urine infected with C. albicans d24,Candida albicans; 2.0 mg/kg i.p.,6%
same,Kidneys infected with C. albicans,Candida albicans; 2.0 mg/kg i.p.,13%
same,Necrotic kidneys,Candida albicans; 2.0 mg/kg i.p.,7%
same,Urine infected with C. albicans d19,Candida albicans; 5.0 mg/kg i.p.,0%
same,Urine infected with C. albicans d24,Candida albicans; 5.0 mg/kg i.p.,7%
same,Kidneys infected with C. albicans,Candida albicans; 5.0 mg/kg i.p.,27%
same,Necrotic kidneys,Candida albicans; 5.0 mg/kg i.p.,47%
same,Urine infected with C. albicans d19,Candida albicans; 10.0 mg/kg i.p.,7%
same,Urine infected with C. albicans d24,Candida albicans; 10.0 mg/kg i.p.,21%
same,Kidneys infected with C. albicans,Candida albicans; 10.0 mg/kg i.p.,29%
same,Necrotic kidneys,Candida albicans; 10.0 mg/kg i.p.,43%
same,Urine infected with C. albicans d19,Candida albicans; 60.0 mg/kg i.p.,13%
same,Urine infected with C. albicans d24,Candida albicans; 60.0 mg/kg i.p.,13%
same,Kidneys infected with C. albicans,Candida albicans; 60.0 mg/kg i.p.,38%
same,Necrotic kidneys,Candida albicans; 60.0 mg/kg i.p.,31%
same,dose for optimal action in chronic Candida albicans infection,"Candida albicans; therapeutic i.p. treatment, mice",0.5 to 5.0 mg/kg
